Data on 4 compounds can be found in US20220401436A1, “METHODS FOR THE TREATMENT OF CANCERS THAT HAVE ACQUIRED RESISTANCE TO KINASE INHIBITORS” (INSERM (INSTITUTE NATIONAL DE LA SANTÉ ET DE LA RECHERCHE …, priority 2019, published 2022).

One data set relates to PC9. The experiment in a line: GFP-transduced PC9 cells treated in vitro, response and relapse followed by fluorescence detection. In kind it is cell-based. Particulars: for emergence of resistant proliferative clones: inhibitor at 1 μM.
The subject of the next data set is HCC827. Briefly: GFP-transduced HCC827 cells treated in vitro, response and relapse followed by fluorescence detection. In kind it is cell-based. Particulars: for emergence of resistant proliferative clones: inhibitor at 1 μM.
The next data set relates to HCC4006. The experiment in a line: GFP-transduced HCC4006 cells treated in vitro, response and relapse followed by fluorescence detection. In kind it is cell-based. The conditions noted are these: for emergence of resistant proliferative clones: inhibitor at 1 μM.
A further data set concerns TKI-sensitive models. The experiment in a line: Relapse in several TKI-sensitive models followed by fluorescence detection (FIG. 1). In kind it is cell-based. Particulars: in combination with TKI; FIG. 1 title. As for the experimental part: (§1) FIG. 1. […] (G-H). GFP-transduced H3122 (ALK-translocated NSCLC cell line) or A375 (BRAF-mutated melanoma cell line) were treated by Tipifarnib 0.1 μM in combination with Alectinib (2 μM) or Vemurafenib (5 μM), respectively, and response as well as relapse was followed by fluorescence detection.

Data set [1] deals with H3122 (ALK-translocated NSCLC cell line). Briefly: GFP-transduced H3122 cells treated in vitro, response and relapse followed by fluorescence detection. In kind it is cell-based. The method, then:
as §1

For data set [2], the system named is A375 (BRAF-mutated melanoma cell line). Briefly: GFP-transduced A375 cells treated in vitro, response and relapse followed by fluorescence detection. In kind it is cell-based. The method, then:
as §1

For data set [3], the system named is EGFR-mutated lung cell lines. The experiment in a line: Drug-tolerant cell (DTC) state in a panel of EGFR-mutated lung cell lines. In kind it is cell-based. From the text:
Actin polymerization is a tightly regulated process orchestrated by GTPases. Given our knowledge on the role of RHOB in resistance to targeted therapy, we assessed whether this GTPase could be responsible for the production of stress fibers in response to EGFR-TKI.

For data set [4] the following is noted: combination of Erlotinib and Tipifarnib; phase I clinical trial; cited from earlier work.
For another data set, the system named is HCC2935. In kind it is cell-based.
Another data set relates to H3255. In kind it is cell-based.
Where [5] appears, read: combination with erlotinib 1 μM.
Setting [6] is: Tipifarnib alone at 0.1 μM, data not shown.
Setting [7] is: combination with erlotinib 1 μM, Tipifarnib at 0.1 μM.
The mark [8] stands for this setting: combination with erlotinib 1 μM, Tipifarnib at 1 μM.
[9] abbreviates: Tipifarnib alone at 1 μM vs 0.1 μM, data not shown.
Where [10] appears, read: erlotinib alone, data not shown.

In the case of `COC(=O)[C@H](CC(C)C)NC(=O)c1ccc(NC[C@@H](N)CS)cc1-c1cccc2ccccc12` [GGTI 298], the “emergence of resistant proliferative clones” value in the data set on PC9 (setting [5]), in the data set with HCC827 (setting [5]) and with HCC4006 (setting [5]) was “didn't prevent the emergence of resistant proliferative clones” each time. Moreover, the relapse result in the data set on TKI-sensitive models is recorded as “not GGTi prevent relapse”.
With `Cn1cncc1[C@@](N)(c1ccc(Cl)cc1)c1ccc2c(c1)c(-c1cccc(Cl)c1)cc(=O)n2C` [Tipifarnib, (R)-6-[amino(4-chlorophenyl)(1-methyl-1H-imidazol-5-yl)methyl]-4-(3-chlorophenyl)-1-methyl-2(1H)-quinolinone], the “effect on cells growth” value is listed as “little-to-non effect” in the data set on PC9 (setting [6]); “little-to-non effect” with HCC827 (setting [6]); “some cytostatic effect” in the data set on HCC4006 (setting [6]); “some cytostatic effect” in data set [1] (Tipifarnib alone at 0.1 μM); “some cytostatic effect” in data set [2] (Tipifarnib alone at 0.1 μM). The “elimination of drug tolerant cells” value in the data set with PC9 (setting [7]), in the data set with PC9 (setting [8]), in the data set with HCC827 (setting [7]), with HCC827 (setting [8]), with HCC4006 (setting [7]) and in the data set on HCC4006 (setting [8]) was “efficiently eliminated all drug tolerant cells” each time. Also, the “emergence of resistant clones” value with PC9 (setting [7]), with HCC827 (setting [7]) and in the data set with HCC4006 (setting [7]) was “fully prevented the emergence of resistant clones” throughout. Besides, the “emergence of resistant proliferative clones” value in the data set with PC9 (setting [5]), in the data set with HCC827 (setting [5]) and in the data set with HCC4006 (setting [5]) was “fully prevented the emergence of resistant clones” in each case. The cytostatic effect result (with HCC4006 (setting [9]); in [1] (setting [9]); in data set [2] (setting [9])) was “exacerbated” each time. The “cell death / remaining DTC after several days of treatment” value in [3] (combination of Tipifarnib and Erlotinib (1 μM), cell lines not named, data not shown) was “complete cell death”. Moreover, the relapse result with TKI-sensitive models is “prevent relapse”. In addition, the tolerability in patients result in data set [4] is reported as “well tolerated”.
Regarding `C#Cc1cccc(Nc2ncnc3cc(OCCOC)c(OCCOC)cc23)c1` [erlotinib], the “proliferative resistant clones after erlotinib treatment” value with PC9 (setting [10]) and with HCC4006 (setting [10]) was “able to generate proliferative resistant clones” in each case. The “resistant clones after erlotinib treatment” value in the data set on HCC2935 and in the data set with H3255 was “never observed resistant clones” in each case. Also, the “generation of DTC” value in data set [3] is given as “able to generate DTC”.
For `C=CC(=O)Nc1cc(Nc2nccc(-c3cn(C)c4ccccc34)n2)c(OC)cc1N(C)CCN(C)C` [osimertinib], the “generation of DTC” value in data set [3] is recorded as “able to generate DTC”.
